From ChEMBL document CHEMBL1201862, “PubChem BioAssay data set” (2004)
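Growth conditions: 96-well plates. Treatment: test compound, 48 hours, 5 concentrations. Analysis: linear interpolation between bracketing concentrations; unreached endpoints set to highest concentration. GI50 marks 50% less growth.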 The source made the active and inactive calls. Rule as the data show it: active = GI50 up to about 1.1 µM and inactive = higher. Where a SMILES comes first, the peptide text is derived from it. [ ]: non-standard residue; d: D form. The star is where a group is joined. ξ: configuration not given here. ξF = NC(Cc1ccccc1)C(=O)O; Cbz = O=C(OCc1ccccc1)*; Aib = CC(C)(N)C(=O)O

Key:
Assay in all cases: DTP human tumour cell line panel, 48 h
[1] = system: A498
[2] = system: A549
[3] = system: CAKI-1
[4] = system: EKVX
[5] = system: HCC 2998
[6] = system: HCT-116
[7] = system: K562
[8] = system: LOX IMVI
[9] = system: M14
[10] = system: MOLT-4
[11] = system: NCI-H460
[12] = system: OVCAR-4
[13] = system: OVCAR-5
[14] = system: RXF 393
[15] = system: SK-MEL-5
[16] = system: SNB-75
[17] = system: SR
[18] = system: SW-620
[19] = system: DU-145
[20] = system: UACC-257

Row | SMILES | GI50 [1] | GI50 [2] | GI50 [3] | GI50 [4] | GI50 [5] | GI50 [6] | GI50 [7] | GI50 [8] | GI50 [9] | GI50 [10] | GI50 [11] | GI50 [12] | GI50 [13] | GI50 [14] | GI50 [15] | GI50 [16] | GI50 [17] | GI50 [18] | GI50 [19] | GI50 [20]
1 | CCN(CC)CC(C)(C)C(=O)/C=C/c1ccc(C)cc1 | 4.54 µM (inactive) | 12.9 µM (inactive) | 12.6 µM (inactive) | 4.88 µM (inactive) | 10 µM (inactive) | 4.3 µM (inactive) | 3.03 µM (inactive) | 11 µM (inactive) | 12.1 µM (inactive) | 3.39 µM (inactive) | 6.08 µM (inactive) | 11.6 µM (inactive) | 14.5 µM (inactive) | 9.62 µM (inactive) | 14.2 µM (inactive) | 6.98 µM (inactive) | 3.61 µM (inactive) | 3.55 µM (inactive) |  | 
2 | CC1CN=C(N(C(=O)Nc2ccc(Cl)c(Cl)c2)c2ccccc2)S1 (stereo unspecified) | > 100 µM (inactive) | 53.7 µM (inactive) | 77.6 µM (inactive) | 71.1 µM (inactive) | 33.6 µM (inactive) | 42.6 µM (inactive) | > 10 µM (inactive) | 28.7 µM (inactive) | 35.3 µM (inactive) | > 100 µM (inactive) | 43.4 µM (inactive) | 41.4 µM (inactive) | > 100 µM (inactive) |  | 20.7 µM (inactive) | 56.2 µM (inactive) |  | 72.1 µM (inactive) | 91.8 µM (inactive) | 68.5 µM (inactive)
3 | COC(=O)C(C)(C)NC(=O)C(Cc1ccccc1)NC(=O)C(C)(C)NC(=O)OCc1ccccc1 (stereo unspecified) (Cbz-[Aib]-[ξF]-[Aib]-OMe) | 24.3 µM (inactive) | > 100 µM (inactive) | > 100 µM (inactive) | > 100 µM (inactive) | > 100 µM (inactive) | > 100 µM (inactive) | > 100 µM (inactive) | > 100 µM (inactive) | > 100 µM (inactive) | > 100 µM (inactive) | > 100 µM (inactive) | > 100 µM (inactive) | > 100 µM (inactive) |  | > 100 µM (inactive) |  |  | > 100 µM (inactive) | > 100 µM (inactive) | > 100 µM (inactive)
4 | Cn1c(=O)c2c(nc(N/N=C3/SCC(=O)N3Cc3ccccc3)n2C)n(C)c1=O | > 100 µM (inactive) | 89.5 µM (inactive) | > 100 µM (inactive) | 94.2 µM (inactive) | > 100 µM (inactive) | > 100 µM (inactive) | < 0.01 µM (active) |  | > 100 µM (inactive) |  | 38 µM (inactive) | 26.4 µM (inactive) | > 100 µM (inactive) | > 100 µM (inactive) | 34 µM (inactive) |  |  |  | > 100 µM (inactive) | > 100 µM (inactive)
5 | COc1ccccc1-c1cc(O)c2c(C)cc(C)nc2n1 | 39.6 µM (inactive) | 59.7 µM (inactive) | 40.3 µM (inactive) | 67.5 µM (inactive) | > 100 µM (inactive) |  | 67.9 µM (inactive) | 75.2 µM (inactive) | 79.8 µM (inactive) | 30 µM (inactive) |  | 56.1 µM (inactive) | > 100 µM (inactive) | 63.7 µM (inactive) |  |  |  | 61.7 µM (inactive) | > 100 µM (inactive) | 50.5 µM (inactive)
6 | Cc1ccccc1NC(=O)C(=O)C1CN(c2ccccc2)N=C1N (stereo unspecified) | > 100 µM (inactive) | > 100 µM (inactive) | > 100 µM (inactive) | > 100 µM (inactive) | > 100 µM (inactive) | > 100 µM (inactive) | > 100 µM (inactive) |  | > 100 µM (inactive) | > 100 µM (inactive) | > 100 µM (inactive) | > 100 µM (inactive) |  | > 100 µM (inactive) | > 10 µM (inactive) | 86.5 µM (inactive) | > 100 µM (inactive) |  |  | > 100 µM (inactive)
7 | Cn1cnc([N+](=O)[O-])c1Sc1nc2cc([N+](=O)[O-])ccc2[nH]1 | 29.6 µM (inactive) | 29.3 µM (inactive) | 12.6 µM (inactive) | 10.5 µM (inactive) | 15 µM (inactive) | 23.4 µM (inactive) | 24.8 µM (inactive) | 24.7 µM (inactive) | 34.4 µM (inactive) | 14.8 µM (inactive) | 36.1 µM (inactive) | 46.6 µM (inactive) | 48.4 µM (inactive) | 17.5 µM (inactive) | 15.5 µM (inactive) | 26.2 µM (inactive) | 9.29 µM (inactive) | 27.9 µM (inactive) |  | 14.3 µM (inactive)
8 | Fc1ccccc1C1SCc2nc3cc4ccccc4cc3n21 (stereo unspecified) |  | 64.9 µM (inactive) | 37 µM (inactive) | 67.6 µM (inactive) | 72.6 µM (inactive) | 24.9 µM (inactive) | > 100 µM (inactive) |  | > 100 µM (inactive) | > 100 µM (inactive) | 26.5 µM (inactive) | 35.1 µM (inactive) | > 100 µM (inactive) | 13.3 µM (inactive) | 71.1 µM (inactive) | 31.7 µM (inactive) |  | 85.7 µM (inactive) | 60.8 µM (inactive) | 61.1 µM (inactive)
9 | CC(=O)OC(C)(C)C[N+](=O)[O-] |  | > 100 µM (inactive) | > 100 µM (inactive) | > 100 µM (inactive) | > 100 µM (inactive) | > 100 µM (inactive) | > 100 µM (inactive) | > 100 µM (inactive) | > 100 µM (inactive) | > 100 µM (inactive) | > 100 µM (inactive) | 20 µM (inactive) | > 100 µM (inactive) | > 100 µM (inactive) |  | > 100 µM (inactive) | > 100 µM (inactive) | > 100 µM (inactive) |  | > 100 µM (inactive)
10 | [O-][n+]1ccccc1S [PYRITHIONE ZINC] | 0.796 µM (active) | 1.55 µM (inactive) | 5.13 µM (inactive) | 2.98 µM (inactive) | 0.452 µM (active) | 0.5 µM (active) | 0.107 µM (active) | 1.4 µM (inactive) | 1.25 µM (inactive) | 0.0973 µM (active) | 1.63 µM (inactive) | 0.542 µM (active) | 5.55 µM (inactive) | 0.135 µM (active) | 1.22 µM (inactive) | 3.03 µM (inactive) | 0.168 µM (active) | 0.161 µM (active) |  | 2.09 µM (inactive)
11 | O=C1NC(=O)/C(=C/c2ccc(S(=O)(=O)N/N=C/c3ccccc3)cc2)N1 | 2.75 µM (inactive) | > 100 µM (inactive) | > 100 µM (inactive) | > 100 µM (inactive) | > 100 µM (inactive) | > 100 µM (inactive) | > 100 µM (inactive) | > 100 µM (inactive) | > 100 µM (inactive) | > 100 µM (inactive) |  | > 100 µM (inactive) | > 100 µM (inactive) | > 100 µM (inactive) | > 100 µM (inactive) | > 100 µM (inactive) |  | > 100 µM (inactive) | > 100 µM (inactive) | > 100 µM (inactive)
12 | CC1CC2=Nc3ccccc3NC(c3ccccc3)C2=C(O)O1 (stereo unspecified) | > 100 µM (inactive) | > 100 µM (inactive) |  | > 100 µM (inactive) | > 100 µM (inactive) | > 100 µM (inactive) | > 100 µM (inactive) | > 100 µM (inactive) | > 100 µM (inactive) | > 100 µM (inactive) | > 100 µM (inactive) |  | > 100 µM (inactive) | > 100 µM (inactive) | > 100 µM (inactive) | > 100 µM (inactive) | 63.1 µM (inactive) | > 100 µM (inactive) |  | > 100 µM (inactive)
13 | CN(CCO)c1nc(=O)c2c([nH]1)CCC2 |  | > 100 µM (inactive) | > 100 µM (inactive) | > 100 µM (inactive) | > 100 µM (inactive) | > 100 µM (inactive) | > 100 µM (inactive) | > 100 µM (inactive) | > 100 µM (inactive) | > 100 µM (inactive) | > 100 µM (inactive) | > 100 µM (inactive) | > 100 µM (inactive) | > 100 µM (inactive) | > 100 µM (inactive) | 43.9 µM (inactive) | > 100 µM (inactive) | > 100 µM (inactive) |  | > 100 µM (inactive)
14 | CCCc1c(C(=O)OCC)[nH]c(-c2ccc(-c3[nH]c(C(=O)OCC)c(CCC)c3C(=O)OCC)o2)c1C(=O)OCC | > 100 µM (inactive) | > 100 µM (inactive) | > 100 µM (inactive) | > 100 µM (inactive) | > 100 µM (inactive) | > 100 µM (inactive) | > 100 µM (inactive) | > 100 µM (inactive) | > 100 µM (inactive) | > 100 µM (inactive) | > 100 µM (inactive) | > 100 µM (inactive) | > 100 µM (inactive) | > 100 µM (inactive) | > 100 µM (inactive) | > 100 µM (inactive) | > 100 µM (inactive) | > 100 µM (inactive) |  | > 100 µM (inactive)
15 | CC1(C)N=C(C2CCCN2C(=O)OCc2ccccc2)OC1=O (stereo unspecified) | > 100 µM (inactive) | > 100 µM (inactive) | > 100 µM (inactive) |  | > 100 µM (inactive) | > 100 µM (inactive) | > 100 µM (inactive) | > 100 µM (inactive) | > 100 µM (inactive) | > 100 µM (inactive) | > 100 µM (inactive) |  | > 100 µM (inactive) | 30 µM (inactive) | > 100 µM (inactive) | > 100 µM (inactive) |  | > 100 µM (inactive) | > 100 µM (inactive) | > 100 µM (inactive)
16 | NC(=O)OCC1=C(COC(N)=O)C(=O)c2c(O)ccc(O)c2C1=O | > 100 µM (inactive) | > 100 µM (inactive) | > 100 µM (inactive) | > 100 µM (inactive) | > 100 µM (inactive) | > 100 µM (inactive) | 61.9 µM (inactive) |  | > 100 µM (inactive) | 55.8 µM (inactive) |  | > 100 µM (inactive) | > 100 µM (inactive) |  | 48 µM (inactive) | > 100 µM (inactive) | > 100 µM (inactive) | 61.1 µM (inactive) |  | > 100 µM (inactive)
